According to ChEMBL document CHEMBL5620417, “N-aryltetrahydroisoquinoline derivatives as HA-CD44 interaction inhibitors: Design, synthesis, computational studies, and antitumor effect” (Eur J Med Chem, 2023):
pEC50: −log10 of the molar value. Active and inactive are the calls of the source. The calls are words filed in the database; no cut-off is given here.

How the values were obtained:
MDA-MB-231 [1] = experiment: Antiproliferative activity against human MDA-MB-231 cells assessed as reduction in cell viability incubated for 5 days by PrestoBlue reagent based glo-max fluorescence assay; assay type: functional; conditions: MDA-MB-231, 120 h
MDA-MB-231 [2] = experiment: Antiproliferative activity against human MDA-MB-231 cells assessed as reduction in cell viability at <=70 uM incubated for 5 days by PrestoBlue reagent based glo-max fluorescence assay; assay type: functional; conditions: time 5.0 day
A549 [3] = experiment: Antiproliferative activity against human A549 cells assessed as reduction in cell viability incubated for 5 days by PrestoBlue reagent based glo-max fluorescence assay; assay type: functional; conditions: A549, 120 h
A549 [4] = experiment: Antiproliferative activity against human A549 cells assessed as reduction in cell viability at >=100 uM incubated for 5 days by PrestoBlue reagent based glo-max fluorescence assay; assay type: functional; conditions: time 5.0 day
MDA-MB-231 [5] = experiment: Antiproliferative activity against human MDA-MB-231 cells assessed as reduction in cell viability at >=100 uM incubated for 5 days by PrestoBlue reagent based glo-max fluorescence assay; assay type: functional; conditions: time 5.0 day
MDA-MB-231 [6] = experiment: Antiproliferative activity against human MDA-MB-231 cells assessed as reduction in cell viability incubated for 5 days pre-incubated with anti-CD44 antibody IM7 by PrestoBlue reagent based glo-max fluorescence assay relative to control; assay type: functional; conditions: time 5 day
[7] = biological target: CD44 antigen (Homo sapiens) (UniProt P16070); experiment: Displacement of HA-FITC from CD44 in human MDA-MB-231 cells assessed as decrease in fluorescent intensity at 120 ug/ml incubated for 45 mins by competitive binding assay based flow cytometric analysis; assay type: cell-based; conditions: dose 120.0 µg/ml
CD44 antigen (Homo sapiens), sequence (P16070 whole entry): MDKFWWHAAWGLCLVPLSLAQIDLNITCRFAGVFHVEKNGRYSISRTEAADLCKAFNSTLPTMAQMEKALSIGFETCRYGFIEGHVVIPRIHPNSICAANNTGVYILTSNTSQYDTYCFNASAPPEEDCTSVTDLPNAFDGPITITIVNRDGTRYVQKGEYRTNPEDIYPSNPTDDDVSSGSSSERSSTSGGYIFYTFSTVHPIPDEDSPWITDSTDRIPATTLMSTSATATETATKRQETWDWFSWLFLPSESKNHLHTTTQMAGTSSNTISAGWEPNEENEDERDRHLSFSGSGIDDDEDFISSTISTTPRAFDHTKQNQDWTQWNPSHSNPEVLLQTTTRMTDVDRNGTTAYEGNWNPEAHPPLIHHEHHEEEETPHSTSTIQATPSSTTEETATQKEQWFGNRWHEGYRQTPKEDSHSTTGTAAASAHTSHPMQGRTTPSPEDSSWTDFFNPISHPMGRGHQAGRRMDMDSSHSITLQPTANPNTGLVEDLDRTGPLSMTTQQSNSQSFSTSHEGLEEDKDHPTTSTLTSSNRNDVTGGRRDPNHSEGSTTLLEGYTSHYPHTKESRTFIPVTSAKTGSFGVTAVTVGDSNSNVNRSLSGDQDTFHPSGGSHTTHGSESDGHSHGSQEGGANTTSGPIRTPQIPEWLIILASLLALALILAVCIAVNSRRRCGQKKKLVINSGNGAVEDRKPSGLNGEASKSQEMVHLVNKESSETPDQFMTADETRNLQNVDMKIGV

MDA-MB-231 [8] = experiment: Antiproliferative activity against human MDA-MB-231 cells assessed as spheroid disaggregation at 100 uM incubated for 5 days by PrestoBlue reagent based microscopic analysis; assay type: functional, cell-based; conditions: time 5.0 day
MDA-MB-231 [9] = experiment: Antiproliferative activity against human MDA-MB-231 cells assessed as decrease in viable cells incubated for 5 days by PrestoBlue reagent based glo-max fluorescence assay; assay type: functional, cell-based; conditions: time 5.0 day
MDA-MB-231 [10] = experiment: Antiproliferative activity against human MDA-MB-231 cells assessed as change in spheroid integrity at 1 uM incubated for 5 days by PrestoBlue reagent based microscopic analysis; assay type: functional, cell-based; conditions: time 5.0 day
MDA-MB-231 [11] = experiment: Antiproliferative activity against human MDA-MB-231 cells assessed as fold change in cell viability incubated for 5 days by PrestoBlue reagent based glo-max fluorescence assay; assay type: functional; conditions: time 5 day
MDA-MB-231 [12] = experiment: Antiproliferative activity against human MDA-MB-231 cells assessed as increase in dead cell in spheroid at 1 uM incubated for 5 days by PrestoBlue reagent based microscopic analysis; assay type: functional; conditions: time 5.0 day

| pEC50 (MDA-MB-231 [1]) | pEC50 (A549 [3]) | Compound | Activity (A549 [4]) | other results |
| --- | --- | --- | --- | --- |
| 4.24 | 4.14 | COc1cc(CN2CCc3cccc(N)c3C2)cc(OC)c1OC |  | Activity (MDA-MB-231 [2]): Active |
|  |  | Nc1cccc2c1CN(S(=O)(=O)c1ccc([N+](=O)[O-])cc1)CC2 | inactive | Activity (MDA-MB-231 [5]): inactive |
| 5.64 | 5.46 | COc1cc(CN2CCc3c(N)cccc3C2)cc(OC)c1OC |  | Activity (MDA-MB-231 [6]): 13%; Activity (MDA-MB-231 [2]): Active; Activity [7]: Active |
| 4.50 | 4.43 | FC(F)(F)c1ccc(CNc2cccc3c2CN(Cc2ccc(C(F)(F)F)cc2)CC3)cc1 |  |  |
| 5.10 |  | CC(=O)CCN1CCc2ccccc2C1 |  |  |
|  |  | Cc1ccc(S(=O)(=O)N2CCc3cccc(N)c3C2)cc1 | inactive | Activity (MDA-MB-231 [5]): inactive |
| 4.11 | 4.42 | Nc1cccc2c1CN(Cc1ccc(Br)cc1)CC2 |  |  |
|  |  | COc1cc2c(cc1OC)CN(S(=O)(=O)c1ccc([N+](=O)[O-])cc1)CC2 | inactive | Activity (MDA-MB-231 [5]): inactive |
|  |  | COc1cc2c(cc1OC)CN(S(=O)(=O)c1ccc(C)cc1)CC2 | inactive | Activity (MDA-MB-231 [5]): inactive |
| 4.70 | 4.32 | COc1cc(CN2CCc3ccccc3C2)cc(OC)c1OC |  | Activity (MDA-MB-231 [2]): Active |
| 4.28 | 4.46 | Nc1cccc2c1CCN(Cc1ccc(C(F)(F)F)cc1)C2 |  |  |
| 4.28 | 4.46 | FC(F)(F)c1ccc(CN2CCc3ccccc3C2)cc1 |  |  |
|  |  | Cc1ccc(S(=O)(=O)N2CCc3ccccc3C2)cc1 | inactive | Activity (MDA-MB-231 [5]): inactive |
| 4.11 | 4.42 | COc1cc2c(cc1OC)CN(Cc1ccc(Br)cc1)CC2 |  |  |
| 4.15 | 4.11 | COc1cc2c(cc1OC)CN(Cc1cc(OC)c(OC)c(OC)c1)CC2 |  | Activity (MDA-MB-231 [2]): Active |
| 6.23 |  | COc1cc(CN2CCc3c(O)cccc3C2)cc(OC)c1OC |  | Activity (MDA-MB-231 [8]): Active; Activity (MDA-MB-231 [6]): 21%; Activity (MDA-MB-231 [9]): Dose-Dependent Effect; Activity (MDA-MB-231 [10]): Active; fold change (FC) (MDA-MB-231 [11]): 4; Activity (MDA-MB-231 [12]): Active; Activity [7]: Active |
|  |  | Nc1cccc2c1CCN(S(=O)(=O)c1ccc([N+](=O)[O-])cc1)C2 | inactive | Activity (MDA-MB-231 [5]): inactive |
| 4.11 | 4.42 | Brc1ccc(CN2CCc3ccccc3C2)cc1 |  |  |
| 5.75 |  | COc1cc(CN2CCc3c(Br)cccc3C2)cc(OC)c1OC |  | Activity (MDA-MB-231 [6]): 24%; fold change (FC) (MDA-MB-231 [11]): 1.3; Activity [7]: Active |
| 4.28 | 4.46 | COc1cc2c(cc1OC)CN(Cc1ccc(C(F)(F)F)cc1)CC2 |  |  |
| 4.21 |  | O=[N+]([O-])c1ccc(S(=O)(=O)N2CCc3ccccc3C2)cc1 | inactive |  |
|  |  | Cc1ccc(S(=O)(=O)N2CCc3c(N)cccc3C2)cc1 | inactive | Activity (MDA-MB-231 [5]): inactive |
| 4.28 | 4.46 | Nc1cccc2c1CN(Cc1ccc(C(F)(F)F)cc1)CC2 |  |  |
| 4.11 | 4.42 | Nc1cccc2c1CCN(Cc1ccc(Br)cc1)C2 |  |  |
